The target in experiment [1] is T1, PPK-2 (MBP-PPK-2) (Mycobacterium tuberculosis, UniProt O05877).
T1 construct: gene ppk2
The experiment in a line: luciferase-based ATP synthesis endpoint assay. The experiment is classed as biochemical.

Experiment [2] has as its target T1, PPK-2 (MBP-PPK-2).

For orientation: inhibition means the relative decrease from the control value, in per cent. Usually % inhibition stands for the relative decrease from the control value, in per cent. A low value points to little suppression.

T1 sequence (O05877 whole entry, looked up): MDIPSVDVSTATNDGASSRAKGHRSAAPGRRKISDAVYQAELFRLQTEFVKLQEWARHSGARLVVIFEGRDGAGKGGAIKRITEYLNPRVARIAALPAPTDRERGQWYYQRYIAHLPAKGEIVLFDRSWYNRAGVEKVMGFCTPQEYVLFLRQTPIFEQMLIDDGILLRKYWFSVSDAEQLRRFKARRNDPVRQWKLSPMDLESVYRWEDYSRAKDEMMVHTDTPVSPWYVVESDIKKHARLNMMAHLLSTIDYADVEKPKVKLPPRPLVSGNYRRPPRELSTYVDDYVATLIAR

Molecule `CC1Oc2cc3c(-c4c(O)cc(O)c5c(O)c6c(cc45)OC(C)C(C)C6=O)c(O)cc(O)c3c(O)c2C(=O)C1C` (stereo not drawn) [NSC-345647] had an inhibition at 100 µM against PPK-2 (MBP-PPK-2) [1] greater than 80%.
For the molecule `Nc1ncnc2c1ncn2[C@@H]1O[C@H](COP(=O)(O)OP(=O)(O)O)[C@@H](O)[C@H]1O` [ADP], the “luciferase-based ATP quantification” value at PPK-2 (MBP-PPK-2) [2] is “ATP synthetic activity of PPK-2 increased in the presence of both ADP and enzyme”.
The same measure, in the same setting: with `O=P(O)(O)OP(=O)(O)OP(=O)(O)O` [PolyP3] the entry was “MBP-PPK-2 could also utilize short chain polyphosphates, PolyP3 as the phosphate donor”.
Regarding `O=c1cc2oc3cc(O)c(O)cc3c(-c3ccccc3O)c-2cc1O` [NSC-9037], the inhibition at 100 µM against PPK-2 (MBP-PPK-2) [1] was greater than 80%.
In the case of `O=c1c(O)cccc2cc(O)c(O)c(O)c12` [NSC-35676], at PPK-2 (MBP-PPK-2) [1] (PolyP17 10 μM as phosphate donor, 10 mM MgCl2, pH 7.4, 37 °C, 10 min pre-incubation, luciferase counter-screened), the “% inhibition at 100 μM” value is on record as greater than 80%.
With `CCOc1ccc(Nc2c3ccccc3nc3ccccc23)cc1` [NSC-30205], the inhibition at 100 µM against PPK-2 (MBP-PPK-2) [1] is greater than 80%.

The values are drawn from PMC4899718, “Establishing Virulence Associated Polyphosphate Kinase 2 as a drug target for Mycobacterium tuberculosis” (Scientific Reports, 2016).
